# Source: ChEMBL document CHEMBL1240417, “QSAR studies of bioactivities of 1-(azacyclyl)-3-arylsulfonyl-1H-pyrrolo[2,3-b]pyridines as 5-HT6 receptor ligands using physicochemical descriptors and MLR and ANN-modeling” (Eur J Med Chem, 2010)
# Target: 5-hydroxytryptamine receptor 6 (Homo sapiens, UniProt P50406)
# Test: Binding affinity to 5HT6 receptor
# Sequence of 5-hydroxytryptamine receptor 6 (P50406 whole entry): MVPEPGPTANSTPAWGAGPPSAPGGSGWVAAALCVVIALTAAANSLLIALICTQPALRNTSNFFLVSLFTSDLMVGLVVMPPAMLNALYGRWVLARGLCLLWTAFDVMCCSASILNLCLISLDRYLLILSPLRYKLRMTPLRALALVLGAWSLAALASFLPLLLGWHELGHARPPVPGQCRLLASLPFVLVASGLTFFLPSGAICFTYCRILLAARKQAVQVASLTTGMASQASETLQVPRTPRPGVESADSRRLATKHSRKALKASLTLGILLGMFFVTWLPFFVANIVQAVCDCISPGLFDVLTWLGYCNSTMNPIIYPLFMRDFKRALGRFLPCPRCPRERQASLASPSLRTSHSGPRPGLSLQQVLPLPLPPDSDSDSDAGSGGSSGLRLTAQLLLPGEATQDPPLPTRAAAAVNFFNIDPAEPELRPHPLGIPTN
row,Ki [nM],SMILES
1,1,O=S(=O)(c1ccc(Cl)s1)c1cn(C2CCNC2)c2ncccc12 (centres undefined)
2,1.7,CC(C)N1CCCC(n2cc(S(=O)(=O)c3c(Cl)nc4sccn34)c3cccnc32)C1 (centres undefined)
3,2,CN1CCCC(n2cc(S(=O)(=O)c3c(Cl)nc4sccn34)c3cccnc32)C1 (centres undefined)
4,1,O=S(=O)(c1cn(C2CCNC2)c2ncccc12)c1c(Cl)nc2sccn12 (centres undefined)
5,1.41,CCN1CCC(n2cc(S(=O)(=O)c3c(Cl)nc4sccn34)c3cccnc32)C1 (centres undefined)
6,0.794,CN1CCC(n2cc(S(=O)(=O)c3c(Cl)nc4sccn34)c3cccnc32)C1 (centres undefined)
7,0.708,CCN1CCCC(n2cc(S(=O)(=O)c3c(Cl)nc4sccn34)c3cccnc32)C1 (centres undefined)
8,33.1,CCN1CCCC(n2cc(S(=O)(=O)c3ccc(Cl)cc3)c3cccnc32)C1 (centres undefined)
9,0.708,O=S(=O)(c1cn(C2CCCNC2)c2ncccc12)c1c(Cl)nc2sccn12 (centres undefined)
